ChEMBL document CHEMBL1129285, “Conformationally constrained analogues of diacylglycerol. 10. Ultrapotent protein kinase C ligands based on a racemic 5-disubstituted tetrahydro-2-furanone template” (J Med Chem, 1996)

Molecular target: Protein kinase C alpha type (Homo sapiens, UniProt P17252)
Test: Displacement of [H-20]phorbol12,13-dibutyrate (PDBU) from Protein kinase C alpha

`CCCCCCCCCCCCC/C=C1/CC(CO)(COC(C)=O)OC1=O` (configuration not stated) showed a Ki of 0.034 µM.

With `CCCCCCCCCCCCC/C=C1\CC(CO)(COC(C)=O)OC1=O` (configuration not stated) the Ki was 0.078 µM.
